Experimental data reported in paper PMC7758046, “Novel piperazine–chalcone hybrids and related pyrazoline analogues targeting VEGFR-2 kinase; design, synthesis, molecular docking studies, and anticancer evaluation” (Journal of Enzyme Inhibition and Medicinal Chemistry, 2020).

Assays:
Test in all cases: NCI-60 single-dose anticancer screen
Assay type in all cases: cell-based, human
A498 (Renal cancer) = conditions: 10 µM single dose
Experimental: (§1) Six compounds were selected by the NCI, according to NCI’s DTP selection guidelines, for evaluation of their anticancer activity at a single-dose of 10 µM against 60 human tumours cell lines.
(§2) In vitro cytotoxicity was performed in NCI according to reported method.

[1] = test system: A549/ATCC (Non-small cell lung cancer); conditions: 10 µM single dose
Experimental: as §1, §2

ACHN (Renal cancer) = conditions: 10 µM single dose
Experimental: as §1, §2

BT-549 (Breast cancer) = conditions: 10 µM single dose
Experimental: as §1, §2

CAKI-1 (Renal cancer) = conditions: 10 µM single dose
Experimental: as §1, §2

CCRF-CEM (Leukaemia) = conditions: 10 µM single dose; for inhibition at 10 µM: Homo sapiens, read-out: cell growth inhibition
Experimental: as §1, §2

COLO 205 (Colon cancer) = conditions: 10 µM single dose
Experimental: as §1, §2

DU-145 (Prostate cancer) = conditions: 10 µM single dose
Experimental: as §1, §2

[2] = test system: EKVX (Non-small cell lung cancer); conditions: 10 µM single dose
Experimental: as §1, §2

HCT-116 (Colon cancer) = conditions: for cell growth promotion: 10 µM single dose; for inhibition at 10 µM: Homo sapiens, read-out: cell growth inhibition
Experimental: as §1, §2

HCT-15 (Colon cancer) = conditions: 10 µM single dose
Experimental: as §1, §2

HL-60(TB) (Leukaemia) = conditions: 10 µM single dose
Experimental: as §1, §2

[3] = test system: HOP-92 (Non-small cell lung cancer); conditions: 10 µM single dose; for inhibition at 10 µM: Homo sapiens, read-out: cell growth inhibition
Experimental: as §1, §2

HT29 (Colon cancer) = conditions: for cell growth promotion: 10 µM single dose; for inhibition at 10 µM: Homo sapiens, HT-29, 10 µM single dose, read-out: cell growth inhibition
Experimental: as §1, §2

IGROV1 (Ovarian cancer) = conditions: 10 µM single dose
Experimental: as §1, §2

K-562 (Leukaemia) = conditions: for cell growth promotion: 10 µM single dose; for inhibition at 10 µM: Homo sapiens, K562, 10 µM single dose, read-out: cell growth inhibition
Experimental: as §1, §2

KM12 (Colon cancer) = conditions: 10 µM single dose
Experimental: as §1, §2

MALME-3M (Melanoma) = conditions: 10 µM single dose
Experimental: as §1, §2

MCF7 (Breast cancer) = conditions: 10 µM single dose
Experimental: as §1, §2

[4] = test system: MDA-MB-231/ATCC (Breast cancer); conditions: 10 µM single dose
Experimental: as §1, §2

MDA-MB-435 (Melanoma) = conditions: 10 µM single dose
Experimental: as §1, §2

[5] = test system: MDA-MB-468 (Breast cancer); conditions: 10 µM single dose
Experimental: as §1, §2

[6] = test system: NCI-H226 (Non-small cell lung cancer); conditions: 10 µM single dose
Experimental: as §1, §2

[7] = test system: NCI-H322M (Non-small cell lung cancer); conditions: 10 µM single dose
Experimental: as §1, §2

[8] = test system: NCI-H460 (Non-small cell lung cancer); conditions: 10 µM single dose
Experimental: as §1, §2

[9] = test system: NCI-H522 (Non-small cell lung cancer); conditions: 10 µM single dose
Experimental: as §1, §2

OVCAR-3 (Ovarian cancer) = conditions: 10 µM single dose
Experimental: as §1, §2

OVCAR-4 (Ovarian cancer) = conditions: 10 µM single dose
Experimental: as §1, §2

OVCAR-5 (Ovarian cancer) = conditions: 10 µM single dose
Experimental: as §1, §2

PC-3 (Prostate cancer) = conditions: 10 µM single dose
Experimental: as §1, §2

RPMI-8226 (Leukaemia) = conditions: 10 µM single dose
Experimental: as §1, §2

RXF 393 (Renal cancer) = conditions: 10 µM single dose
Experimental: as §1, §2

SF-268 (CNS cancer) = conditions: 10 µM single dose
Experimental: as §1, §2

SF-295 (CNS cancer) = conditions: 10 µM single dose
Experimental: as §1, §2

SF-539 (CNS cancer) = conditions: 10 µM single dose
Experimental: as §1, §2

SK-MEL-2 (Melanoma) = conditions: 10 µM single dose
Experimental: as §1, §2

SK-MEL-28 (Melanoma) = conditions: 10 µM single dose
Experimental: as §1, §2

SK-MEL-5 (Melanoma) = conditions: 10 µM single dose
Experimental: as §1, §2

SK-OV-3 (Ovarian cancer) = conditions: 10 µM single dose
Experimental: as §1, §2

SN12C (Renal cancer) = conditions: 10 µM single dose
Experimental: as §1, §2

SNB-75 (CNS cancer) = conditions: 10 µM single dose
Experimental: as §1, §2

T-47D (Breast cancer) = conditions: 10 µM single dose
Experimental: as §1, §2

TK-10 (Renal cancer) = conditions: 10 µM single dose
Experimental: as §1, §2

U251 (CNS cancer) = conditions: 10 µM single dose
Experimental: as §1, §2

UACC-62 (Melanoma) = conditions: 10 µM single dose
Experimental: as §1, §2

UO-31 (Renal cancer) = conditions: 10 µM single dose
Experimental: as §1, §2

[10] = Homo sapiens, read-out: cell growth inhibition

`O=C(C=Cc1cccc(F)c1)c1ccc(N2CCNCC2)cc1` [Vd, 3-(3-Fluorophenyl)-1-(4-(piperazin-1-yl)phenyl)prop-2-en-1-one] was tested, and the cell growth promotion (A498 (Renal cancer)) was 95.14%, the cell growth promotion [1] was 76.84% and the cell growth promotion (ACHN (Renal cancer)) was 84.70%. The cell growth promotion (BT-549 (Breast cancer)) was 73.16%, the cell growth promotion (CAKI-1 (Renal cancer)) was 68.63% and the cell growth promotion (CCRF-CEM (Leukaemia)) was 58.18%. It also gave an inhibition at 10 µM (CCRF-CEM (Leukaemia)) of 41.8%, a cell growth promotion (COLO 205 (Colon cancer)) of 96.91% and a cell growth promotion (DU-145 (Prostate cancer)) of 77.70%. For the same compound, the cell growth promotion [2] was 95.54%, the cell growth promotion (HCT-116 (Colon cancer)) was 42.08% and the inhibition at 10 µM (HCT-116 (Colon cancer)) was 57.9%. It also gave a cell growth promotion (HCT-15 (Colon cancer)) of 73.49%, a cell growth promotion (HL-60(TB) (Leukaemia)) of 60.38% and an inhibition at 10 µM (HL-60(TB) (Leukaemia); [10]) of 39.2%. For the same compound, the cell growth promotion [3] was 58.41%, the inhibition at 10 µM [3] was 41.6% and the cell growth promotion (HT29 (Colon cancer)) was 30.44%. For the same compound, the inhibition at 10 µM (HT29 (Colon cancer)) was 69.6%, the cell growth promotion (IGROV1 (Ovarian cancer)) was 67.97% and the cell growth promotion (K-562 (Leukaemia)) was 16.55%. The inhibition at 10 µM (K-562 (Leukaemia)) was 83.5%, the cell growth promotion (KM12 (Colon cancer)) was 77.75% and the cell growth promotion (MALME-3M (Melanoma)) was 94.15%. The cell growth promotion (MCF7 (Breast cancer)) was 51.72%, the inhibition at 10 µM (MCF7 (Breast cancer); [10]) was 48.3% and the cell growth promotion [4] was 73.60%. The cell growth promotion (MDA-MB-435 (Melanoma)) was 94.27%, the cell growth promotion [5] was 94.85% and the cell growth promotion [6] was 87.11%. The cell growth promotion [7] was 75.26%, the cell growth promotion [8] was 74.45% and the cell growth promotion [9] was 71.57%. It also gave a cell growth promotion (OVCAR-3 (Ovarian cancer)) of 93.74%, a cell growth promotion (OVCAR-4 (Ovarian cancer)) of 80.53% and a cell growth promotion (OVCAR-5 (Ovarian cancer)) of 94.72%. The cell growth promotion (PC-3 (Prostate cancer)) was 66.01%, the cell growth promotion (RPMI-8226 (Leukaemia)) was 76.47% and the cell growth promotion (RXF 393 (Renal cancer)) was 75.94%. It also gave a cell growth promotion (SF-268 (CNS cancer)) of 85.41%, a cell growth promotion (SF-295 (CNS cancer)) of 101.78% and a cell growth promotion (SF-539 (CNS cancer)) of 94.49%. It also gave a cell growth promotion (SK-MEL-2 (Melanoma)) of 96.08%, a cell growth promotion (SK-MEL-28 (Melanoma)) of 109.03% and a cell growth promotion (SK-MEL-5 (Melanoma)) of 76.85%. For the same compound, the cell growth promotion (SK-OV-3 (Ovarian cancer)) was 79.98%, the cell growth promotion (SN12C (Renal cancer)) was 68.16% and the cell growth promotion (SNB-75 (CNS cancer)) was 85.44%. It also gave a cell growth promotion (T-47D (Breast cancer)) of 87.54%, a cell growth promotion (TK-10 (Renal cancer)) of 114.19% and a cell growth promotion (U251 (CNS cancer)) of 72.39%. For the same compound, the cell growth promotion (UACC-62 (Melanoma)) was 79.23% and the cell growth promotion (UO-31 (Renal cancer)) was 76.58%.
In the case of `N#Cc1ccccc1C1CC(c2ccc(N3CCNCC3)cc2)=NN1` (stereo not shown) [VIa, 2-(3-(4-(Piperazin-1-yl)phenyl)-4,5-dihydro-1H-pyrazol-5-yl)benzonitrile], the cell growth promotion (A498 (Renal cancer)) is reported as 93.08%, the cell growth promotion [1] is reported as 78.06% and the inhibition at 10 µM [1, 10] is reported as 21.9%. The cell growth promotion (ACHN (Renal cancer)) was 104.24%, the cell growth promotion (BT-549 (Breast cancer)) was 96.87% and the cell growth promotion (CAKI-1 (Renal cancer)) was 83.12%. It also gave a cell growth promotion (CCRF-CEM (Leukaemia)) of 71.21%, an inhibition at 10 µM (CCRF-CEM (Leukaemia)) of 28.8% and a cell growth promotion (COLO 205 (Colon cancer)) of 113.04%. For the same compound, the cell growth promotion (DU-145 (Prostate cancer)) was 104.00%, the cell growth promotion [2] was 101.50% and the cell growth promotion (HCT-116 (Colon cancer)) was 85.83%. It also gave an inhibition at 10 µM (HCT-116 (Colon cancer)) of 14.2%, a cell growth promotion (HCT-15 (Colon cancer)) of 112.02% and a cell growth promotion (HL-60(TB) (Leukaemia)) of 81.63%. It also gave a cell growth promotion [3] of 83.18%, an inhibition at 10 µM [3] of 16.8% and a cell growth promotion (HT29 (Colon cancer)) of 87.83%. For the same compound, the inhibition at 10 µM (HT29 (Colon cancer)) was 12.2%, the cell growth promotion (IGROV1 (Ovarian cancer)) was 93.22% and the cell growth promotion (K-562 (Leukaemia)) was 78.12%. The inhibition at 10 µM (K-562 (Leukaemia)) was 21.9%, the cell growth promotion (KM12 (Colon cancer)) was 97.48% and the cell growth promotion (MALME-3M (Melanoma)) was 106.87%. For the same compound, the cell growth promotion (MCF7 (Breast cancer)) was 93.05%, the cell growth promotion [4] was 95.96% and the cell growth promotion (MDA-MB-435 (Melanoma)) was 102.57%. For the same compound, the cell growth promotion [5] was 101.01%, the cell growth promotion [6] was 93.10% and the cell growth promotion [7] was 98.35%. The cell growth promotion [8] was 101.50%, the cell growth promotion [9] was 69.51% and the inhibition at 10 µM [9, 10] was 30.5%. For the same compound, the cell growth promotion (OVCAR-3 (Ovarian cancer)) was 101.64%, the cell growth promotion (OVCAR-4 (Ovarian cancer)) was 101.39% and the cell growth promotion (OVCAR-5 (Ovarian cancer)) was 113.63%. The cell growth promotion (PC-3 (Prostate cancer)) was 83.35%, the cell growth promotion (RPMI-8226 (Leukaemia)) was 88.98% and the cell growth promotion (RXF 393 (Renal cancer)) was 108.30%. The cell growth promotion (SF-268 (CNS cancer)) was 100.24%, the cell growth promotion (SF-295 (CNS cancer)) was 103.66% and the cell growth promotion (SF-539 (CNS cancer)) was 105.04%. For the same compound, the cell growth promotion (SK-MEL-2 (Melanoma)) was 94.51%, the cell growth promotion (SK-MEL-28 (Melanoma)) was 114.17% and the cell growth promotion (SK-MEL-5 (Melanoma)) was 93.27%. It also gave a cell growth promotion (SK-OV-3 (Ovarian cancer)) of 96.47%, a cell growth promotion (SN12C (Renal cancer)) of 98.09% and a cell growth promotion (SNB-75 (CNS cancer)) of 90.58%. The cell growth promotion (T-47D (Breast cancer)) was 89.99%, the cell growth promotion (TK-10 (Renal cancer)) was 130.17% and the cell growth promotion (U251 (CNS cancer)) was 94.54%. The cell growth promotion (UACC-62 (Melanoma)) was 88.47% and the cell growth promotion (UO-31 (Renal cancer)) was 86.28%.
